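Each compound was tested at five concentrations against cells in 96-well plates for 48 hours. The concentration for full growth arrest is given as TGI.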
Legend:
Experiment in all cases: NCI-60 cell line screen, 48 h
SK-MEL-2 melanoma = test system: SK-MEL-2 melanoma
SF-539 CNS = test system: SF-539 CNS
CCRF-CEM leukemia = test system: CCRF-CEM leukemia
MDA-N = test system: MDA-N
HOP-62 NSCLC = test system: HOP-62 NSCLC
SF-295 CNS = test system: SF-295 CNS
786-0 renal = test system: 786-0 renal
ACHN renal = test system: ACHN renal
UACC-62 melanoma = test system: UACC-62 melanoma
SR leukemia = test system: SR leukemia
HS 578T breast = test system: HS 578T breast

Structure (SMILES) | TGI (SK-MEL-2 melanoma) | TGI (SF-539 CNS) | TGI (CCRF-CEM leukemia) | TGI (MDA-N) | TGI (HOP-62 NSCLC) | TGI (SF-295 CNS) | TGI (786-0 renal) | TGI (ACHN renal) | TGI (UACC-62 melanoma) | TGI (SR leukemia) | TGI (HS 578T breast)
CCOC(=O)/C(C(=O)c1ccc[nH]1)=C1/CCCN1C | > 100 µM | > 100 µM | > 100 µM | > 100 µM | > 100 µM | > 100 µM | > 100 µM | > 100 µM | > 100 µM | > 100 µM | > 100 µM
CCOc1c2c(cc3c1C(=O)c1c(OC)cccc1C3=O)C=C(OC)CC2 | > 25 µM | > 25 µM | > 25 µM | 19.9 µM | > 25 µM | > 25 µM | > 25 µM | > 25 µM | > 25 µM | 22.9 µM | > 25 µM
CC(C)=CC(=O)c1[nH]c2ccccc2c1CC(=O)NCCc1cnc[nH]1 | > 100 µM | > 100 µM | > 100 µM | > 100 µM |  | > 100 µM | > 100 µM | > 100 µM | > 100 µM | > 100 µM | > 100 µM
CCC(CCCC[C@H]1CC[C@@H]2CC(=O)C[C@H]12)OC (some centres not stated) | > 100 µM | > 100 µM | > 100 µM | > 100 µM | > 100 µM | > 100 µM | > 100 µM | > 100 µM | > 100 µM | > 100 µM | > 100 µM
CCCCCCCC(=O)NC(C)(C)C(=O)NCC(=O)NC(CC(C)C)C(=O)NC(C)(C)C(=O)NCC(=O)NCC(=O)NC(CC(C)C)C(=O)NC(C)(C)C(=O)NCC(=O)NC(C(=O)NC(CO)CC(C)C)C(C)CC (configuration not stated) | 5.85 µM |  | 11.7 µM | 7.37 µM | 8.12 µM | 7.76 µM | 8.11 µM | 8.75 µM | 7.54 µM | 8.63 µM | 8.81 µM
COc1ccc(/C=N/n2c(-c3ccccc3)n[nH]c2=O)c(OC)c1 | > 100 µM | > 84.9 µM | > 100 µM | > 100 µM | > 68.3 µM | > 100 µM | > 100 µM | > 75.5 µM | > 100 µM | > 100 µM | 80 µM
c1ccc(-c2cc(-c3ccccc3)nc(-c3ccncc3)c2)cc1 | > 100 µM |  | > 100 µM | > 100 µM | 55.4 µM | > 100 µM | > 100 µM | > 100 µM | > 100 µM | > 100 µM | > 100 µM
NC1=Nc2ncccc2C(=O)NN1 | > 10 µM | > 10 µM | > 10 µM | > 10 µM | > 10 µM | > 10 µM | > 10 µM | > 10 µM | > 10 µM | > 10 µM | > 10 µM
O=C1OCOC2(CCCC2)C1c1ccccc1 (configuration not stated) | > 100 µM | > 100 µM | > 100 µM | > 100 µM | > 100 µM | > 100 µM | > 100 µM | > 100 µM | > 100 µM | > 100 µM | > 100 µM
COc1cccc(C2c3cc4c(cc3OC(NNS(=O)(=O)c3ccc(C)cc3)C2C)OCO4)c1O (configuration not stated) | 53 µM | 51.8 µM | 43.6 µM | 80.1 µM | 53 µM | 94.6 µM | > 100 µM | > 100 µM | 79.7 µM | 26.2 µM | 41.6 µM
CCN(CC)C(=O)N[C@@H](CC(C)C)C(=O)NC | > 100 µM |  | > 100 µM | > 100 µM | > 100 µM | > 100 µM | > 100 µM | > 100 µM | > 100 µM | > 100 µM | > 100 µM

Reference: PubChem BioAssay (NCI)
